Laboratory results reported in patent US4241069A, “3-Methylene flavanones and 3-methylene chromanones” (Miles Laboratories, Inc., priority 1979, dated 1980).
In brackets after ≈: the same amount, converted by molar mass.

What was measured:
A. fumigatus NRRL 163 = assay: MIC, agar incorporation method; assay type: cell-based; settings: Aspergillus fumigatus, NRRL163, NRRL 163; 32° C., 48-72 hours; read-out: Minimal Inhibitory Concentration
Protocol: (§1) The compounds of the present invention were tested for their ability to inhibit the growth of microorganisms by in vitro tests. Generally the in vitro tests involve growing representative microorganisms under conditions favorable to such growth and measuring the effectiveness of one or more compounds in inhibiting or destroying the growth of the microorganisms. The microorganisms used include representative bacteria, fungi and yeasts.
(§2) A representative selection of the test microorganisms were cultured in a nutrient broth, such as, for example, Eugon, commercially available from Difco Laboratories, Detroit, Michigan. Bacteria and Candida species were cultured for 24 hours at 32°-37° C. and fungi were cultured for approximately one week at 32° C. Inocula were prepared by suspending the growth or spores from a slant culture in sufficient sterile normal (0.9 percent) saline or Eugon broth, to yield cell or spore concentrations of 1,000,000 cells per milliliter. Anaerobic bacteria were cultured for 48-72 hours at 32°-37° C. in a thioglycollate containing medium, for example, Fluid Thioglycollate medium or NIH thioglycollate broth, commercially available from Difco Laboratories.
(§3) The compounds of the present invention were tested for activity against bacteria, yeasts and fungi by the agar incorporation method described below. MA 1347, 3-(dimethylaminomethyl)flavanone (disclosed in U.S. Pat. No. 3,753,985) was used as a comparative standard along with controls for each solvent system used.
(§4) A series of agar plates containing two-fold dilutions of each compound to be tested, ranging in concentration from 100 to 3.1 mcg/ml of agar medium was prepared. Aliquots of each concentration (100, 50, 25, 12.5, 6.2, and 3.1) prepared in N,N-dimethylformamide or 50 percent aqueous DMF were added to liquid Eugon agar at 48° C. (one part test solution to 100 parts agar). In some cases, tests with further dilutions to 0.125 mcg/ml were conducted. The agar medium, containing the 3-methylene flavanone or chromanone compound to be tested, was then dispensed into petri dishes and allowed to solidify. The solidified plates were kept overnight at room temperatures to dry the surface of the agar.
(§5) The agar plates were then inoculated with a drop of the standardized cell or spore suspension. Inoculated plates were incubated at 32° C. The inhibition end-point or minimum inhibitory concentration (MIC) shown in Table D represent the lowest concentration of test compound which inhibited the growth of the microorganism. Visual determination of growth inhibition was used. Bacteria and yeast end-points were determined after 24 hours incubation; molds, dermatophytes and anaerobes after 48-72 hours incubation. MIC values shown as ranges represent the extremes found in repeat assays. Virtually all such values were written plus or minus one dilution, the accepted variation of a two-fold dilution assay.

[1] = test system: Staphylococcus aureus ATCC 6538; assay: MIC, agar incorporation method; assay type: cell-based; settings: Staphylococcus aureus, ATCC6538; S. aureus ATCC 6538; 32° C., 24 hours; read-out: Minimal Inhibitory Concentration
Protocol: as §1, §2, §3, §4, §5

T. mentagrophytes TM-2 = assay: MIC, agar incorporation method; assay type: cell-based; settings: Trichophyton mentagrophytes, TM2, 32° C., 48-72 hours, read-out: Minimal Inhibitory Concentration
Protocol: as §1, §2, §3, §4, §5

[2] = test system: Trichophyton mentagrophytes ATCC 4807; assay: MIC, agar incorporation method; assay type: cell-based; settings: ATCC4807, 32° C., 48-72 hours, read-out: Minimal Inhibitory Concentration
Protocol: as §1, §2, §3, §4, §5

T. mentagrophytes CDC = assay: MIC, agar incorporation method; assay type: cell-based; settings: Trichophyton mentagrophytes, 32° C., 48-72 hours, read-out: Minimal Inhibitory Concentration
Protocol: as §1, §2, §3, §4, §5

T. tonsurans ATCC 10217 = assay: MIC, agar incorporation method; assay type: cell-based; settings: Trichophyton tonsurans, ATCC10217; 32° C., 48-72 hours; read-out: Minimal Inhibitory Concentration
Protocol: as §1, §2, §3, §4, §5

[3] = test system: Aspergillus niger ATCC 16404; assay: MIC, agar incorporation method; assay type: cell-based; settings: ATCC16404, 32° C., 48-72 hours, read-out: Minimal Inhibitory Concentration
Protocol: as §1, §2, §3, §4, §5

[4] = test system: Sarcina subflava ATCC 7468; assay: MIC, agar incorporation method; assay type: cell-based; settings: ATCC7468, 32° C., 24 hours, read-out: Minimal Inhibitory Concentration
Protocol: as §1, §2, §3, §4, §5

[5] = test system: Streptococcus faecalis ATCC 10541; assay: MIC, agar incorporation method; assay type: cell-based; settings: Enterococcus faecalis, ATCC10541; 32° C., 24 hours; read-out: Minimal Inhibitory Concentration
Protocol: as §1, §2, §3, §4, §5

C. guillermondii VM 42 = assay: MIC, agar incorporation method; assay type: cell-based; settings: 32° C., 24 hours; read-out: Minimal Inhibitory Concentration
Protocol: as §1, §2, §3, §4, §5

C. tropicalis NRRL Y1410 = assay: MIC, agar incorporation method; assay type: cell-based; settings: Candida tropicalis, NRRLY1410; 32° C., 24 hours; read-out: Minimal Inhibitory Concentration
Protocol: as §1, §2, §3, §4, §5

C. albicans NRRL Y-477 = assay: MIC, agar incorporation method; assay type: cell-based; settings: Candida albicans, NRRLY477, 32° C., 24 hours, read-out: Minimal Inhibitory Concentration
Protocol: as §1, §2, §3, §4, §5

[6] = test system: Escherichia coli ATCC 8739; assay: MIC, agar incorporation method; assay type: cell-based; settings: ATCC8739, 32° C., 24 hours, read-out: Minimal Inhibitory Concentration
Protocol: as §1, §2, §3, §4, §5

[7] = test system: Pseudomonas aeruginosa ATCC 14502; assay: MIC, agar incorporation method; assay type: cell-based; settings: ATCC14502, 32° C., 24 hours, read-out: Minimal Inhibitory Concentration
Protocol: as §1, §2, §3, §4, §5

C. krusei VM 29B = assay: MIC, agar incorporation method; assay type: cell-based; settings: Pichia kudriavzevii, VM29B; 32° C., 24 hours; read-out: Minimal Inhibitory Concentration
Protocol: as §1, §2, §3, §4, §5

[8] = test system: Microsporum gypseum ATCC 14683; assay: MIC, agar incorporation method; assay type: cell-based; settings: Nannizzia gypsea, ATCC14683, 32° C., 48-72 hours; read-out: Minimal Inhibitory Concentration
Protocol: as §1, §2, §3, §4, §5

[9] = test system: Candida albicans ATCC 10231; assay: MIC, agar incorporation method; assay type: cell-based; settings: ATCC10231, C. albicans ATCC 10231, 32° C., 24 hours, read-out: Minimal Inhibitory Concentration
Protocol: as §1, §2, §3, §4, §5

S. aureus NRRL B2747 [10] = assay: MIC, agar incorporation method; assay type: cell-based, Staphylococcus aureus; settings: Staphylococcus aureus, NRRLB2747, 32° C., 24 hours, read-out: Minimal Inhibitory Concentration
Protocol: as §1, §2, §3, §4, §5

[11] = test system: Propionobacterium acnes ATCC 6919; assay: MIC, agar incorporation method, anaerobic; assay type: cell-based; settings: 48 hours at 35° C., GasPak Anaerobic Jar, read-out: Minimal Inhibitory Concentration
Protocol: as §1, §2, §3, §4, §5
(§6) *Anaerobic: 48 hours incubation at 35° C. GasPak Anaerobic Jar

[12] = test system: Bacteriodides fragilis ATCC 8482; assay: MIC, agar incorporation method, anaerobic; assay type: cell-based; settings: 48 hours at 35° C., GasPak Anaerobic Jar, read-out: Minimal Inhibitory Concentration
Protocol: as §1, §2, §3, §4, §5, §6

S. aureus NRRL B2747 [13] = assay: MIC, agar incorporation method, anaerobic; assay type: cell-based; settings: Staphylococcus aureus, NRRLB2747, 48 hours at 35° C., GasPak Anaerobic Jar, read-out: Minimal Inhibitory Concentration
Protocol: as §1, §2, §3, §4, §5, §6

[14] = test system: Clostridium sporogenes ATCC 11437; assay: MIC, agar incorporation method, anaerobic; assay type: cell-based; settings: ATCC11437, 48 hours at 35° C., GasPak Anaerobic Jar, read-out: Minimal Inhibitory Concentration
Protocol: as §1, §2, §3, §4, §5, §6

In the case of `C=C1C(=O)c2ccccc2OC1(c1ccccc1)c1cccs1` (centres unmarked) [Ex. 21, 3-Methylene-2-(2-thienyl) flavanone], the MIC (A. fumigatus NRRL 163) was 100 µg/mL (≈ 314 µM), the MIC [1] was 0.5 µg/mL (≈ 1.57 µM) and the MIC (T. mentagrophytes TM-2) was 12.5 µg/mL (≈ 39.3 µM). For the same compound, the MIC [2] was 12.5 µg/mL (≈ 39.3 µM), the MIC (T. mentagrophytes CDC) was 12.5 µg/mL (≈ 39.3 µM) and the MIC (T. tonsurans ATCC 10217) was 6.2 µg/mL (≈ 19.5 µM). The MIC [3] was > 100 µg/mL, the MIC [4] was 1.56 µg/mL (≈ 4.9 µM) and the MIC [5] was 1 µg/mL (≈ 3.14 µM). The MIC (C. guillermondii VM 42) was > 100 µg/mL, the MIC (C. tropicalis NRRL Y1410) was > 100 µg/mL and the MIC (C. albicans NRRL Y-477) was > 100 µg/mL. The MIC [6] was > 100 µg/mL, the MIC [7] was > 100 µg/mL and the MIC (C. krusei VM 29B) was > 100 µg/mL. The MIC [8] was 6.2 µg/mL (≈ 19.5 µM), the MIC [9] was > 100 µg/mL and the MIC (S. aureus NRRL B2747 [10]) was 0.5 µg/mL (≈ 1.57 µM). For the same compound, the MIC [11] was 1 µg/mL (≈ 3.14 µM), the MIC [12] was 0.25 µg/mL (≈ 0.785 µM) and the MIC (S. aureus NRRL B2747 [13]) was 1.56 µg/mL (≈ 4.9 µM). The MIC [14] was 0.5 µg/mL (≈ 1.57 µM).
`C=C1C(=O)c2ccccc2OC1(c1ccccc1)c1ccncc1` (centres unmarked) [Ex. 22, 3-Methylene-2-(4-pyridyl) flavanone] was tested, and the MIC (A. fumigatus NRRL 163) was 25 µg/mL (≈ 79.8 µM), the MIC [1] was 0.78 µg/mL (≈ 2.49 µM) and the MIC (T. mentagrophytes TM-2) was 12.5 µg/mL (≈ 39.9 µM). For the same compound, the MIC [2] was 12.5 µg/mL (≈ 39.9 µM), the MIC (T. mentagrophytes CDC) was 25 µg/mL (≈ 79.8 µM) and the MIC (T. tonsurans ATCC 10217) was 6.2 µg/mL (≈ 19.8 µM). For the same compound, the MIC [3] was > 100 µg/mL, the MIC [4] was 3.1 µg/mL (≈ 9.89 µM) and the MIC [5] was 3.1 µg/mL (≈ 9.89 µM). The MIC (C. guillermondii VM 42) was > 100 µg/mL, the MIC (C. tropicalis NRRL Y1410) was > 100 µg/mL and the MIC (C. albicans NRRL Y-477) was 100 µg/mL (≈ 319 µM). For the same compound, the MIC [6] was > 100 µg/mL, the MIC [7] was > 100 µg/mL and the MIC (C. krusei VM 29B) was 100 µg/mL (≈ 319 µM). The MIC [8] was 12.5 µg/mL (≈ 39.9 µM), the MIC [9] was 100 µg/mL (≈ 319 µM) and the MIC (S. aureus NRRL B2747 [10]) was 0.78 µg/mL (≈ 2.49 µM). The MIC [11] was 1 µg/mL (≈ 3.19 µM), the MIC [12] was 0.25 µg/mL (≈ 0.798 µM) and the MIC (S. aureus NRRL B2747 [13]) was 1 µg/mL (≈ 3.19 µM). The MIC [14] was 0.5 µg/mL (≈ 1.6 µM).
